Experimental data: ChEMBL document CHEMBL1148806 (J Med Chem, 2007)
Calls of active or inactive are those of the source. No cut-off for these calls is given here.

How the values were obtained:
[1] = tested on: Liver microsomes; assay: Antioxidant activity in rat hepatic microsomal membrane at 1 mM; assay type: functional; settings: Microsome
[2] = Effect on nitric oxide release in phosphate buffer at pH 7.4 in presence of cysteine at 100 uM; assay type: functional
[3] = biological target: T1, Beta-2 adrenergic receptor (Cavia porcellus, UniProt Q8K4Z4)
[4] = biological target: Beta-2 adrenergic receptor (Rattus norvegicus) (UniProt P10608); assay type: functional, tissue-based; settings: Thoracic aorta, 100 uM
[5] = biological target: T2, Beta-2 adrenergic receptor (Rattus norvegicus, UniProt P10608); assay: Vasodilating activity against phenylephrine-induced contractions in rat thoracic aorta
[6] = biological target: T2, Beta-2 adrenergic receptor
Description: Vasodilating activity against phenylephrine-induced contraction in rat thoracic aorta in presence of 1H-[1,2,4]oxadiazolo-[4,3-a]quinoxalin-1-one

[7] = tested on: Liver microsomes; assay: Antioxidant activity in rat hepatic microsomal membrane
[8] = biological target: Beta-2 adrenergic receptor (Cavia porcellus) (UniProt Q8K4Z4); assay: Agonist activity at adrenergic beta-2 receptor in guinea pig tracheal rings assessed as myorelaxing activity on carbachol-induced contraction at 100 uM; assay type: functional; parameters: scale not given: the % may be the effect or the level left
[9] = biological target: Beta-2 adrenergic receptor (Rattus norvegicus) (UniProt P10608); assay: Vasodilating activity in rat thoracic aorta on phenylephrine-induced contraction at 100 uM; assay type: functional, tissue-based
[10] = biological target: T1, Beta-2 adrenergic receptor; remark: listed apart in the source
Description: Agonist activity at adrenergic beta-2 receptor in guinea pig tracheal rings assessed as myorelaxing activity on carbachol-induced contraction in presence of 1H-[1,2,4]oxadiazolo-[4,3-a]quinoxalin-1-one

[11] = biological target: T1, Beta-2 adrenergic receptor; remark: listed apart in the source

T1 sequence (Q8K4Z4 whole entry): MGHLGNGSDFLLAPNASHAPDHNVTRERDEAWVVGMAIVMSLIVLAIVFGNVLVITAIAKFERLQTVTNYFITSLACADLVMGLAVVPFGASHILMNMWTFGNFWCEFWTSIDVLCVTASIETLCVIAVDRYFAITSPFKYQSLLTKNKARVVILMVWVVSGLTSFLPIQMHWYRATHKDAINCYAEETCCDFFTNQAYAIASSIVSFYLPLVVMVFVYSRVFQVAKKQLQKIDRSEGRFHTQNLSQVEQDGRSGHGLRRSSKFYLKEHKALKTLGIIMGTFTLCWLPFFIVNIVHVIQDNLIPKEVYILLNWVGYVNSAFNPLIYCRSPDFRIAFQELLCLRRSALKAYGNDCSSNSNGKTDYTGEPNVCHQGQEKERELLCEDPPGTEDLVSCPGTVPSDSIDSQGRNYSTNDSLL
Beta-2 adrenergic receptor (Rattus norvegicus), sequence (P10608 whole entry, looked up): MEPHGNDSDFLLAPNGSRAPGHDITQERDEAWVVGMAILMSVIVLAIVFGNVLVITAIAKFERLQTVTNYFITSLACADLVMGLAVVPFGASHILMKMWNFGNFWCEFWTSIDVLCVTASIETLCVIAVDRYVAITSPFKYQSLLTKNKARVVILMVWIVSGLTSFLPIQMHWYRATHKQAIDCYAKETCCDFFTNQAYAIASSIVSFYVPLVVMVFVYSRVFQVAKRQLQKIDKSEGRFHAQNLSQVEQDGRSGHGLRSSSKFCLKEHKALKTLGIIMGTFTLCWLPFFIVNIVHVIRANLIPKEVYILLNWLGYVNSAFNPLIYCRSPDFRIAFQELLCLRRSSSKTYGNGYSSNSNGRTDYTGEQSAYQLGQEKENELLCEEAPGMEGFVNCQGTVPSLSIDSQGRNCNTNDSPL
T2 sequence (P10608 whole entry): as the sequence (P10608 whole entry, looked up) above
Beta-2 adrenergic receptor (Cavia porcellus), sequence (Q8K4Z4 whole entry, looked up): as the sequence (Q8K4Z4 whole entry) above

For `NC(=O)c1c(CO)no[n+]1[O-]`, the Activity [1] was “inactive”, the Activity [2] was 12% and the EC50 [3] was 86000 nM. It also gave an Activity [4] of less than 50% and an EC50 [5] of 6300 nM.
`CCOc1no[n+]([O-])c1S(=O)(=O)c1ccccc1` gave an Activity [2] of 36%, an EC50 [3] of 2300 nM and an EC50 [5] of 12 nM. For the same compound, the EC50 [6] was 1200 nM and the IC50 [7] was 110000 nM.
In the case of `Cc1c(CO)no[n+]1[O-]`, the Activity [1] is reported as “inactive”, the Activity [2] is reported as less than 1% and the Activity [8] is reported as less than 50%. It also gave an Activity [9] of less than 50%.
For `CC(Cc1ccc(OCc2no[n+]([O-])c2C(N)=O)cc1)NCC(O)c1cc(O)cc(O)c1` (racemic) [listing 1 of 2 here], the EC50 [10] was 1100 nM, the EC50 [3] was 1000 nM and the EC50 [5] was 1200 nM. The EC50 [6] was 16000 nM.
`CC(Cc1ccc(OCc2no[n+]([O-])c2C(N)=O)cc1)NCC(O)c1cc(O)cc(O)c1` (racemic) [listing 2 of 2 here] gave an Activity [2] of 10.4%.
With `CC(Cc1ccc(Oc2no[n+]([O-])c2S(=O)(=O)c2ccccc2)cc1)NCC(O)c1cc(O)cc(O)c1` (stereo in doubt; 15a) [listing 1 of 2 here] the EC50 [10] was 17 nM, the EC50 [3] was 18 nM and the EC50 [5] was 14 nM. For the same compound, the EC50 [6] was 860 nM and the IC50 [7] was 13500 nM.
In the case of `CC(Cc1ccc(Oc2no[n+]([O-])c2S(=O)(=O)c2ccccc2)cc1)NCC(O)c1cc(O)cc(O)c1` (stereo in doubt; 15a) [listing 2 of 2 here], the Activity [2] is reported as 28.4%.
With `CC(Cc1ccc(Oc2no[n+]([O-])c2S(=O)(=O)c2ccccc2)cc1)NCC(O)c1cc(O)cc(O)c1` (stereo in doubt; 15b) [listing 1 of 2 here] the EC50 [10] was 440 nM, the EC50 [3] was 250 nM and the EC50 [5] was 14 nM. For the same compound, the EC50 [6] was 1300 nM.
For `CC(Cc1ccc(Oc2no[n+]([O-])c2S(=O)(=O)c2ccccc2)cc1)NCC(O)c1cc(O)cc(O)c1` (stereo in doubt; 15b) [listing 2 of 2 here], the Activity [2] was 27.5%.
For `CC(Cc1ccc(Oc2nonc2S(=O)(=O)c2ccccc2)cc1)NCC(O)c1cc(O)cc(O)c1` (stereo in doubt; 16a), the EC50 [3] was 39 nM and the IC50 [7] was 57000 nM.
Work on `CC(Cc1ccc(Oc2nonc2S(=O)(=O)c2ccccc2)cc1)NCC(O)c1cc(O)cc(O)c1` (stereo in doubt; 16b) yielded an EC50 [11] of 39 nM.
`CC(Cc1ccc(OCc2no[n+]([O-])c2C(N)=O)cc1)NCC(O)c1cc(O)cc(O)c1` (stereo in doubt; 34a) [listing 1 of 2 here] showed an EC50 [10] of 130 nM, an EC50 [3] of 110 nM and an EC50 [5] of 1200 nM. It also gave an EC50 [6] of 14000 nM and an IC50 [7] of 156000 nM.
`CC(Cc1ccc(OCc2no[n+]([O-])c2C(N)=O)cc1)NCC(O)c1cc(O)cc(O)c1` (stereo in doubt; 34a) [listing 2 of 2 here] gave an Activity [2] of 11.5%.
For `CC(Cc1ccc(OCc2nonc2C(N)=O)cc1)NCC(O)c1cc(O)cc(O)c1` (stereo in doubt; 35a), the EC50 [3] was 29 nM and the IC50 [7] was 286000 nM.
In the case of `CC(Cc1ccc(OCc2nonc2C(N)=O)cc1)NCC(O)c1cc(O)cc(O)c1` (stereo in doubt; 35b), the EC50 [3] is reported as 170 nM.
Compound `Cc1c(COc2ccc(CC(C)NCC(O)c3cc(O)cc(O)c3)cc2)no[n+]1[O-]` (stereo in doubt; 36a) [listing 1 of 2 here] has an EC50 [10] of 230 nM, an EC50 [3] of 220 nM and an EC50 [5] of 18000 nM. For the same compound, the IC50 [7] was 298000 nM.
With `Cc1c(COc2ccc(CC(C)NCC(O)c3cc(O)cc(O)c3)cc2)no[n+]1[O-]` (stereo in doubt; 36a) [listing 2 of 2 here] the Activity [2] was less than 1% and the Activity [4] was less than 50%.
`Cc1c(COc2ccc(CC(C)NCC(O)c3cc(O)cc(O)c3)cc2)no[n+]1[O-]` (stereo in doubt; 36b) [listing 1 of 2 here] gave an EC50 [10] of 1200 nM, an EC50 [3] of 1300 nM and an EC50 [5] of 20000 nM.
`Cc1c(COc2ccc(CC(C)NCC(O)c3cc(O)cc(O)c3)cc2)no[n+]1[O-]` (stereo in doubt; 36b) [listing 2 of 2 here] showed an Activity [2] of less than 1% and an Activity [4] of less than 50%.
With `Cc1nonc1COc1ccc(CC(C)NCC(O)c2cc(O)cc(O)c2)cc1` (stereo in doubt; 37a) the EC50 [3] was 110 nM and the IC50 [7] was 123000 nM.
Compound `Cc1nonc1COc1ccc(CC(C)NCC(O)c2cc(O)cc(O)c2)cc1` (stereo in doubt; 37b) has an EC50 [3] of 2200 nM.
